# Patent publication US7563805B2, “Tri-, tetra-substituted-3-aminopyrrolidine derivative” (Daiichi Pharmaceutical Co., Ltd., priority 2005, dated 2009)
# Read-outs that look alike come from different tables or passages of the source.
# Tests used:
# [1] = tested on: S. pneumoniae, J24 (penicillin-intermediate resistant bacteria); experiment: antibacterial activity (MIC), standard method of Japanese Society of Chemotherapy; conditions: Streptococcus pneumoniae
# [2] = female, cynomolgus monkey, in vivo, 5 mg/kg
# [3] = male, Crj:CD IGS, rat, in vivo, po, 5 mg/kg
# Procedure: (§1) The Comparative compound was also evaluated by the same procedure.
# (§2) The test substance was orally administered to fasted rats (7 week old male Crj:CD IGS rats purchased from Charles River Laboratories Japan, Inc.) at a dose of 5 mg/kg.
# (§3) Animals of absorption test group (3 animals per group) were sacrificed by bleeding under etherization at 0.25, 0.5, 1, 2, 4, and 8 hours after the drug administration, and blood, lever, kidney, and lung were collected. The blood was centrifuged (3000 rpm×15 minutes, 4° C.) after coagulation to collect serum. Tissue was homogenized after adding 3 to 5 mL of 0.1 mol/l phosphate buffer (pH 7.0), and the supernatant was collected from the homogenate (3000 rpm×15 minutes, 4° C.).
# (§4) Animals of excretion test group (3 animals per group) were placed in a metabolic cage, and the urine of 0 to 4 hours and 4 to 24 hours after the administration was collected in a water-cooled container. Simultaneously with the collection of the urine, the cage was also washed with about 15 mL of 0.1 mol/l phosphate buffer (pH 7.0) to collect the urine attached to the cage. For evaluation of conjugates such as glucuronide, the collected sample was also aliquoted and hydrolyzed with an equal amount of 1 mol/l aqueous solution of sodium hydroxide, and the hydrolysate was neutralized with 0.5 mol/l hydrochloric acid and measured for its concentration. The concentration was measured by LC-MS/MS method.
# (§5) Pharmacokinetic parameters of the each drug in rat were calculated by from the time course of the average concentration by using pharmacokinetic analysis software PSAG-CP (AS Medica Inc.) in a manner not dependent on the model animal.
# P. vulgaris, 08601 = experiment: antibacterial activity (MIC), standard method of Japanese Society of Chemotherapy; conditions: Proteus vulgaris, 08601, P. vulgaris
# [4] = parameters: species or system guinea pigs (Slc:Hertley); conditions: guinea pig, in vivo; for Average score in GPMT: male, Slc:Hertley
# Procedure: Guinea pig maximization test (GPMT) which is a widely accepted model for delayed antigenicity was conducted according to the method of Mugnusson et al. (J. invest. Dermatol., 52, 1969) by using a cutaneous sensitization concentration of 1% and a patch sensitization and induction concentration of 10%. At day 1, the animal was sensitized by cutaneously administering the test substance (the quinolone compounds and the control: vehicle, vaseline) (1% solution in physiological saline+FCA emulsion) at the back of the head of the shaved guinea pigs (7 week old male Slc:Hertley). At day 7, lauryl sodium sulfate (SLC) was applied for stimulus (adjuvant treatment), and on the next day, the test substance coated on a wax paper was patched onto the shaved skin to for sealed sensitization, and after 48 hours (at day 10), the waxed paper was removed. The skin reaction was observed upon the removal. On day 22, the test substance (10%) was patched onto the anterior side of the body for induction, and the induction patching was removed after 24 hours. On the next day (at day 24) and the next day (at day 25), the skin reaction was evaluated according to the description of the document as mentioned above. Erythema and edema were scored, and the case with the total score of 2 or higher was evaluated to be positive with the maximum of the score being 7.
# S. aureus, 209P = experiment: antibacterial activity (MIC), standard method of Japanese Society of Chemotherapy; conditions: Staphylococcus aureus
# E. coli NIHJ = experiment: as above; conditions: Escherichia coli
# hERG K+ channel = hERG K+ channel (Homo sapiens, UniProt Q12809); experiment: hERG-K^+ channel blocking effect
# hERG K+ channel, sequence (Q12809 whole entry): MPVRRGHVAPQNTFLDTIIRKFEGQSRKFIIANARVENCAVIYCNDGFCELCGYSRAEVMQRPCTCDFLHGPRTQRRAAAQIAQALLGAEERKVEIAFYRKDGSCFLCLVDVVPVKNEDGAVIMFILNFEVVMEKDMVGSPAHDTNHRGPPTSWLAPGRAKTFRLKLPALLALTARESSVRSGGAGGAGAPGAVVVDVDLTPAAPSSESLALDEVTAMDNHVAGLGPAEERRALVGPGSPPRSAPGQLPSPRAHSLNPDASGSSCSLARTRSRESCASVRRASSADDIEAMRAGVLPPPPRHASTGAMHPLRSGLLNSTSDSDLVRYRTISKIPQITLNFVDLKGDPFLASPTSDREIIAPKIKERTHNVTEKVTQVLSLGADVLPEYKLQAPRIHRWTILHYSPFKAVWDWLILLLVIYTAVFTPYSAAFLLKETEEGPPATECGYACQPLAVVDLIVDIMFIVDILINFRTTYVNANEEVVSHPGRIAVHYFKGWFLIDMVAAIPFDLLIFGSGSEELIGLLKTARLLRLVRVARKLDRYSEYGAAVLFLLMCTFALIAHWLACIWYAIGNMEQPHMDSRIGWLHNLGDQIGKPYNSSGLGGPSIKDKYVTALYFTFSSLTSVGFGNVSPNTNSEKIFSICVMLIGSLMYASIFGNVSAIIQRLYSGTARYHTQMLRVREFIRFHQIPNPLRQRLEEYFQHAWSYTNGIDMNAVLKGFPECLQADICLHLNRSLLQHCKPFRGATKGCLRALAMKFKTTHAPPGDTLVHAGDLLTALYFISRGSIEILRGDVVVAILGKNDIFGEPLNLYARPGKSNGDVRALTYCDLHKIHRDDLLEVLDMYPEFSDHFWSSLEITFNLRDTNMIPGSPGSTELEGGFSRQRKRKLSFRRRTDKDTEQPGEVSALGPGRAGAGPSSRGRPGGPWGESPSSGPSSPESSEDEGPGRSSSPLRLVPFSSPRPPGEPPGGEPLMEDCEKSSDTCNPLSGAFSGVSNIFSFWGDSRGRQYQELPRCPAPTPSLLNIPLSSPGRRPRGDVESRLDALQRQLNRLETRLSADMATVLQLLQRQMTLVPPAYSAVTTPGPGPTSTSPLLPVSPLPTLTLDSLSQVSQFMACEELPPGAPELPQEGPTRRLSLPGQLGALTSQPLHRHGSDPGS
# E. faecalis, ATCC 19433 = experiment: antibacterial activity (MIC), standard method of Japanese Society of Chemotherapy; conditions: Enterococcus faecalis, ATCC19433, E. faecalis
# in vivo [5] = conditions: male, Crj:CD IGS, rat, po, 5 mg/kg
# Procedure: as §1, §2, §3, §4, §5
# S. marscecens, 10100 = experiment: antibacterial activity (MIC), standard method of Japanese Society of Chemotherapy
# [6] = tested on: Mycobacterium tuberculosis (sensitive bacteria); experiment: anti-Mycobacterium tuberculosis (sensitive bacteria) activity, MIC; assay type: cell-based
# in vivo [7] = conditions: female, cynomolgus monkey, po, 5 mg/kg
# P. aeruginosa, 32104 = experiment: antibacterial activity (MIC), standard method of Japanese Society of Chemotherapy; conditions: Pseudomonas aeruginosa
# [8] = tested on: S. aureus, 87037 (LVFX-resistant MRSA); experiment: as above; conditions: Staphylococcus aureus, MRSA, S. aureus, 87037 (LVFX-resistant MRSA)
# [9] = tested on: Mycobacterium tuberculosis (quinolone sensitive); experiment: anti-Mycobacterium tuberculosis (quinolone sensitive) activity, MIC; assay type: cell-based
# S. epidermidis, 56500 = experiment: antibacterial activity (MIC), standard method of Japanese Society of Chemotherapy; conditions: Staphylococcus epidermidis, 56500, S. epidermidis
# P. aeruginosa, 32121 = experiment: as above; conditions: Pseudomonas aeruginosa
# [10] = tested on: bone marrow cells (polychromatic erythrocytes); experiment: mouse bone marrow micronucleus test; assay type: in vivo, Slc:ddY male mice; conditions: single i.v. dose, 24 h, Example 2: 50, 100 mg/kg, Example 3: 100, 150 mg/kg, Example 9: 50, 100, 150 mg/kg
# Procedure: The control was 0.1 mol/l NaOH/physiological saline solvent, and the positive control was cyclophosphamide (cyclophoshamide, CP) dissolved and diluted in physiological saline. All samples were sterilized by filtering through Milex GS filter (0.22 μm). Each solution was intravenously administered at a dose of 10 mL/kg in single dose at an administration rate of 0.2 mL/min.
# Bone marrow cells were collected from thigh bone at 24 hours after the administration, and smear preparation was prepared. After staining with acridine orange, 1000 polychromatic erythrocytes per animal were observed under fluorescence microscope to count frequency of micrronucleated polychromatic erythrocyte and ratio of the orthochromatic erythrocytes to the polychromatic erythrocyte in 1000 erythrocytes.
# [11] = in vivo; cited from earlier work
# 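Throughout, for Serum AUC0-8 h: fasted 7-week-old rats, three per group, tissue sampled up to 8 h post-dose and urine collected over 0–24 h, with conjugates measured after alkaline hydrolysis, concentrations by LC-MS/MS.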
# 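Throughout, for Tissue AUC0-8 h, Kidney: fasted 7-week-old rats, three per group, tissue sampled up to 8 h post-dose and urine collected over 0–24 h, with conjugates measured after alkaline hydrolysis, concentrations by LC-MS/MS.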
# 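Throughout, for Tissue AUC0-8 h, Liver: fasted 7-week-old rats, three per group, tissue sampled up to 8 h post-dose and urine collected over 0–24 h, with conjugates measured after alkaline hydrolysis, concentrations by LC-MS/MS.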
# 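Throughout, for Tissue AUC0-8 h, Lung: fasted 7-week-old rats, three per group, tissue sampled up to 8 h post-dose and urine collected over 0–24 h, with conjugates measured after alkaline hydrolysis, concentrations by LC-MS/MS.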
structure (smiles),measurement,setting,value
COc1c(N2C[C@@H](N)C3(CC3)C2)c(F)cc2c(=O)c(C(=O)O)cn([C@@H]3C[C@@H]3F)c12 [Comparative compound 1],MIC,[1],0.025 µg/mL
same,"Recovery (%) in urine in relation to the amount administered, Recovery (%) including conjugate",[2],32.9%
same,"Recovery (%) in urine in relation to the amount administered, Recovery (%) including conjugate",[3],23.1%
same,Serum AUC0-8 h,[3],1590 ng·h/mL
same,"Tissue AUC0-8 h, Kidney",[3],19300 ng·h/mL
same,"Tissue AUC0-8 h, Liver",[3],15000 ng·h/mL
same,"Tissue AUC0-8 h, Lung",[3],6770 ng·h/mL
same,"Tissue Cmax, Kidney",[3],8.63 µg/g
same,"Tissue Cmax, Liver",[3],9.3 µg/g
same,"Tissue Cmax, Lung",[3],2.59 µg/g
same,MIC,"P. vulgaris, 08601",0.012 µg/mL
same,Evaluation in GPMT,[4],Positive
same,Average score in GPMT,[4],6.8
same,MIC,"S. aureus, 209P",0.006 µg/mL
same,MIC,E. coli NIHJ,≤ 0.003 µg/mL
same,inhibition at 30 µM,hERG K+ channel,6.7 ± 8.3%
same,inhibition at 100 µM,hERG K+ channel,13.5 ± 3.1%
same,inhibition at 300 µM,hERG K+ channel,24.8 ± 16.5%
same,MIC,"E. faecalis, ATCC 19433",0.1 µg/mL
same,Cmax,in vivo [5],820 ng/mL
same,MIC,"S. marscecens, 10100",0.05 µg/mL
same,MIC,"[6]; H37RV, strain H37Rv",0.06 µg/mL
same,MIC,[6]; strain Kurono,0.06 µg/mL
same,MIC,[6]; strain Ravenel,0.06 µg/mL
same,MIC,[6]; strain TB-s 2,0.125 µg/mL
same,MIC,[6]; strain TB-s 3,0.125 µg/mL
same,MIC,[6]; strain TB-s 4,0.125 µg/mL
same,MIC,[6]; strain TB-s 5,0.06 µg/mL
same,MIC,[6]; strain TB-s 6,0.125 µg/mL
same,MIC,[6]; strain TB-s 7,0.25 µg/mL
same,MIC,[6]; strain TB-s 8,0.06 µg/mL
same,MIC,[6]; strain TB-s 9,0.125 µg/mL
same,MIC,[6]; strain TB-s 10,0.06 µg/mL
same,MIC,[6]; strain TB-s 11,0.125 µg/mL
same,MIC,[6]; strain TB-s 12,0.25 µg/mL
same,MIC,[6]; strain TB-s 13,0.125 µg/mL
same,MIC,[6]; strain TB-s 14,0.125 µg/mL
same,MIC,[6]; strain TB-s 15,0.125 µg/mL
same,MIC,[6]; strain TB-s 16,0.125 µg/mL
same,MIC,[6]; strain TB-s 17,0.125 µg/mL
same,MIC,[6]; strain TB-s 18,0.125 µg/mL
same,MIC,[6]; strain TB-s 19,0.125 µg/mL
same,MIC,[6]; strain TB-s 20,0.25 µg/mL
same,MIC,[6]; strain TB-s 21,0.125 µg/mL
same,MIC,[6]; strain TB-s 22,0.06 µg/mL
same,AUC(0-t),in vivo [7],5110 ng·h/mL
same,Cmax,in vivo [7],840 ng/mL
same,half-life,in vivo [7],5 h
same,MIC,"P. aeruginosa, 32104",0.1 µg/mL
same,MIC,[8],0.39 µg/mL
same,MIC,[9]; strain 1 (QR-3),1 µg/mL
same,MIC,[9]; strain 2 (QR-6),128 µg/mL
same,MIC,[9]; strain 3 (QR-1),2 µg/mL
same,MIC,[9]; strain 4 (QR-9),32 µg/mL
same,MIC,[9]; strain MDR 1,0.5 µg/mL
same,MIC,[9]; strain MDR 3,0.5 µg/mL
same,MIC,[9]; strain MDR 4,0.5 µg/mL
same,MIC,[9]; strain MDR 5,1 µg/mL
same,MIC,[9]; strain MDR 7,0.5 µg/mL
same,MIC,[9]; strain MDR 9,0.5 µg/mL
same,MIC,[9]; strain MDR 12,0.5 µg/mL
same,MIC,[9]; strain S 1,2 µg/mL
same,MIC,"S. epidermidis, 56500",0.05 µg/mL
same,MIC,"P. aeruginosa, 32121",0.05 µg/mL
"COc1c(N2C[C@H](C)[C@@](C)(N)C2)c(F)cc2c(=O)c(C(=O)O)cn([C@@H]3C[C@@H]3F)c12 (single isomer, unassigned) [Example 2, 7-[(3R*,4S*)-3-Amino-3,4-dimethylpyrrolidin-1-yl]-6-fluoro-1-[(1R,2S)-2-fluorocyclopropyl]-8-methoxy-1,4-dihydro-4-oxoquinoline-3-carboxylic acid]",MIC,[1],0.1 µg/mL
same,"Recovery (%) in urine in relation to the amount administered, Recovery (%) including conjugate",[3],26.6%
same,"Tissue AUC0-8 h, Kidney",[3],14700 ng·h/mL
same,"Tissue AUC0-8 h, Liver",[3],17400 ng·h/mL
same,"Tissue AUC0-8 h, Lung",[3],8070 ng·h/mL
same,"Tissue Cmax, Kidney",[3],7.78 µg/g
same,"Tissue Cmax, Liver",[3],10.2 µg/g
same,"Tissue Cmax, Lung",[3],2.46 µg/g
same,MIC,"P. vulgaris, 08601",0.025 µg/mL
same,MIC,"S. aureus, 209P",0.025 µg/mL
same,MIC,E. coli NIHJ,0.012 µg/mL
same,inhibition at 30 µM,hERG K+ channel,3.8 ± 2.1%
same,inhibition at 100 µM,hERG K+ channel,8.5 ± 1.2%
same,inhibition at 300 µM,hERG K+ channel,18.2 ± 4.2%
same,MIC,"E. faecalis, ATCC 19433",0.2 µg/mL
same,"micronucleus induction rate versus control, evaluation result",[10],negative
same,AUC(0-t),in vivo [5],1310 ng·h/mL
same,Cmax,in vivo [5],670 ng/mL
same,MIC,"S. marscecens, 10100",0.1 µg/mL
same,MIC,"P. aeruginosa, 32104",0.2 µg/mL
same,MIC,[8],0.78 µg/mL
same,MIC,"S. epidermidis, 56500",0.05 µg/mL
same,MIC,"P. aeruginosa, 32121",0.1 µg/mL
"CO/N=C1\CN(c2nc3c(cc2F)c(=O)c(C(=O)O)cn3C2CC2)CC1CN (centres unmarked) [Gemifloxacin, gemifloxacin]",Average score in GPMT,[4],6.8
same,side effect of rash in phase 3 clinical trial,[11],frequently develops the side effect of rash
